Measurements published in ChEMBL document CHEMBL1158039, “Chemical constituents from the peels of Citrus sudachi” (2006).

Legend:
Format in all cases: functional
Staphylococcus aureus [1] = experiment: Antimicrobial activity against methicillin-resistant Staphylococcus aureus 5 at 100 ug/disk after 24 hrs by disk diffusion method; conditions: read-out: IZ
Helicobacter pylori [2] = experiment: Antimicrobial activity against Helicobacter pylori ATCC 43504 at 100 ug/disk after 4 days by disk diffusion method; conditions: ATCC 43504, 96 h, read-out: IZ
Staphylococcus aureus [3] = experiment: Antimicrobial activity against methicillin-resistant Staphylococcus aureus COL at 100 ug/disk after 24 hrs by disk diffusion method; conditions: read-out: IZ
Staphylococcus aureus [4] = experiment: Antimicrobial activity against methicillin-resistant Staphylococcus aureus COL at 20 ug/disk after 24 hrs by disk diffusion method; conditions: read-out: IZ
Staphylococcus aureus [5] = experiment: Antimicrobial activity against methicillin-resistant Staphylococcus aureus 5 at 20 ug/disk after 24 hrs by disk diffusion method; conditions: read-out: IZ
Helicobacter pylori [6] = experiment: Antimicrobial activity against Helicobacter pylori ATCC 43504 at 0.25 ug/disk after 4 days by disk diffusion method; conditions: ATCC 43504, 96 h, read-out: IZ

Compound | zone of inhibition at 100 µg/disc (Staphylococcus aureus [1]) | zone of inhibition at 100 µg/disc (Helicobacter pylori [2]) | zone of inhibition at 100 µg/disc (Staphylococcus aureus [3]) | zone of inhibition at 20 µg/disc (Staphylococcus aureus [4]) | zone of inhibition at 20 µg/disc (Staphylococcus aureus [5]) | zone of inhibition at 0.25 µg/disc (Helicobacter pylori [6])
COc1cc(-c2cc(=O)c3c(O)c(OC)c(O)c(OC)c3o2)ccc1O [SUDACHITIN] | 25.4 mm | 14 mm | 12 mm | – | – | –
COc1c(O)c(OC)c2oc(-c3ccc(O)cc3)cc(=O)c2c1O | 23.8 mm | 10.5 mm | 12.5 mm | – | – | –
CC(=O)OCC1=C(C(=O)O)N2C(=O)[C@@H](NC(=O)CSc3ccncc3)[C@H]2SC1 [CEPHAPIRIN] | – | – | – | 8.2 mm | 9.4 mm | –
CC1(C)S[C@@H]2[C@H](NC(=O)[C@H](N)c3ccc(O)cc3)C(=O)N2[C@H]1C(=O)O [AMOXICILLIN] | – | – | – | – | – | 33 mm
